Results reported in US20250082618A1, “DOSING REGIMENS USING TOPICAL ROFLUMILAST COMPOSITIONS” (ARCUTIS BIOTHERAPEUTICS, INC., priority 2023, published 2025).

Test system: patients with atopic dermatitis
Experiment: Phase III open-label trial: vIGA-AD, maintenance (BIW) dosing and disease control
Format: in vivo, human
Description: The vIGA-AD is a static evaluation of qualitative overall AD severity. This global assessment scale is an ordinal scale with five severity grades (reported only in integers of 0 to 4). Each grade is defined by a distinct and clinically relevant morphologic description that minimizes inter-observer variability (see Table 1). vIGA-AD is evaluated for the entire body except the scalp, palms, and soles.
A Phase III, multicenter, open-label clinical trial was carried out to investigate the use of a topical roflumilast emollient cream to treat patients with atopic dermatitis. The primary objective of this study was to assess long-term safety in a multicenter, open-label, single-arm study in subjects with atopic dermatitis treated with either […] (for subjects ≥6 years of age) or 0.05% (for subjects between 2 to 5 years of age) topical roflumilast cream.
The primary endpoints of the study were adverse events or serious adverse events. The secondary endpoints of this study were validated investigator Global assessment-atopic dermatitis (“vIGA-AD”) value 0 or 1 at each assessment, vIGA-AD success (defined as vIGA-AD value of 0 or 1 plus a 2-grade improvement from baseline), Worst Itch-Numeric Rating Score (“WI-NRS”) score over time, and Eczema Area and Severity Index (“EASI”) score over time.
All patients enrolled in this phase III study applied either a 0.15% or 0.05% roflumilast topical cream once daily until Week 4 of the study. Patients between 2-5 years of age received 0.05% roflumilast topical cream and patients 6 years of age or older received 0.15% roflumilast. Subjects who reached 6 years of age during the study were switched from 0.05% to 0.15% roflumilast topical cream at the first scheduled clinical visit following their sixth birthday. Study medication was applied for up to 24 or 52 weeks to all affected areas, except on the scalp. Beginning at the Week 4 visit, any subject who achieved vIGA-AD of 0 as confirmed by the Investigator at a scheduled or unscheduled clinical visit, was switched from daily to twice weekly administration of roflumilast topical cream. Instructions for the twice weekly administration were to apply the roflumilast topical cream on two nonconsecutive days per week (e.g. Monday and Thursday) to areas commonly and/or most recently affected by atopic dermatitis and any areas where atopic dermatitis was developing.
Clinical visits and phone contact were scheduled at Weeks 4, 12, 18, 24, 30, 36, 44, and 52 of the study. At clinical visits, subjects receiving twice weekly treatment (“maintenance treatment”) were permitted to continue maintenance treatment if vIGA-AD was either 0 or 1. Subjects evaluated at clinical visits with vIGA-AD 2 or greater were instructed to resume daily administration of roflumilast topical cream. Patients were also permitted to resume daily dosing, despite a vIGA-AD of 1, if signs or symptoms of atopic dermatitis were not adequately controlled with maintenance therapy.
Median duration of the first maintenance dosing period was ≥124 days for the 24-week cohort and ≥270 days for the 52-week cohort. 65% percent of these patients were on a maintenance dosing regimen through the final visit. Disease control was defined as a vIGA-AD score of 0, a switch to a maintenance dosing regimen, and a maintenance of a vIGA-AD score of 0 or 1.

O=C(Nc1c(Cl)cncc1Cl)c1ccc(OC(F)F)c(OCC2CC2)c1 [roflumilast, N-(3,5-dichloropyrid-4-yl)-3-cyclopropylmethoxy-4-difluoromethoxybenzamide]
Median duration of the first maintenance (BIW) dosing period (24-week cohort): ≥ 124 days | Median duration of the first maintenance (BIW) dosing period (52-week cohort): ≥ 270 days | number of patients who achieved vIGA-AD=0 and switched to maintenance (BIW) dosing (by Week 24 and Week 52): 132 | patients who achieved vIGA-AD=0 and switched to maintenance (BIW) dosing (by Week 24 and Week 52, once daily, twice weekly after vIGA-AD 0): 20.1% | patients on maintenance (BIW) dosing regimen through the final visit (of the 132 patients who switched): 65%
